Test results taken from patent publication US8841257B2, “Inhibitors of STAT3 and uses thereof” (Board of Regents, The University of Texas System, priority 2009, dated 2014).
Entries after “also recorded” stand apart in the source; their conditions may differ.

Key:
[1] = tested on: MDA-MB-231 and SUM149 cells; assay: Vasculogenic mimicry exhibited by breast cancer cells; type: cell-based; conditions: 5 μM in DMSO; 24 hours
Method: Cells were treated with 5 μM of the compounds from examples 1 and 8 formulated in DMSO or with DMSO alone as a control. To highlight the matrix-associated vascular channels that were formed, cells were stained with periodic acid-Schiff (PAS) reagent. Representative photographs were taken at 24 hours at —10 magnification. Each experiment was repeated 3 times.

[2] = tested on: SUM149 and MDA-MB-231 cells; assay: In vitro invasion of an artificial basement membrane; type: cell-based, human; conditions: 72 hours
Method: Effect of prodrugs on in vitro invasion of an artificial basement membrane by human breast cancer cells. SUM149 and MDA-MB-231 cells were trypsinized, resuspended in serum-supplemented medium, and counted. Cells were then washed 3 times with serum-free medium. Plates (6-well) compatible with transwell inserts with 8 μm pore-size polycarbonate filters (Fisher Scientific) were coated with Matrigel in cold serum-free DMEM/F12 at a final concentration of 0.7 mg/mL and held at room temperature for 40 minutes. Cells (in 500 μL serum-free medium) were added into the transwell inserts and incubated for 72 hours in the absence or presence 5 μM prodrug in DMSO (1% by volume). For a control, 10% FBS was used to evaluate the baseline extent of invasion of the different cell lines. After incubation, noninvading cells on the upper surface of the filter were removed with cotton swabs. Cells that had passed through the pores onto the lower side of the filter were fixed, stained with Hema-3 stain (Fisher Scientific), and quantified. The experiments were performed in triplicate and were repeated twice.

[3] = tested on: xenografts of MDA-MB-468 cells; assay: MDA-MB-468 xenograft in nude mice, intratumoral injection; type: in vivo
Method: After 15 days mice were separated into three groups. Group 1 received PBS, group 2 received 20% hydroxypropyl-β-cyclodextrin (Trappsol) in PBS and group 3 received 10 mM of the compound in 20% Trappsol/PBS. Injections of 50 μL were made directly into the tumors. PBS is a phosphate buffered saline having pH7. Mice were treated daily for 5 days, given two days of rest and were treated for 5 days. On day 16 mice were treated and two hours later tumors were harvested, divided into two parts. The first part was frozen and the other was fixed in formalin for immunohistochemistry. Average tumor volume increased 2.3 and 2.5-fold in PBS and Trappsol/PBS vehicle controls, respectively.
Efficacy of Compound of Example 1 in animal models. […] Nu/nu Nude mice were injected in the mammary fat pad with 2×10^6 MDA-MB-468 cells suspended in matrigel. After 15 days mice were separated into three groups. Group 1 received PBS, group 2 received 20% hydroxypropyl-β-cyclodextrin (Trappsol) in PBS and group 3 received 10 mM of the compound of Example 1 in 20% Trappsol/PBS. PBS is a phosphate buffered saline with pH7. Injections of 50 μL were made directly into the tumors. Mice were treated daily for 5 days, given two days of rest and were treated for 5 days. On day 16 mice were treated and two hours later tumors were harvested, divided into two parts. The first part was frozen and the other was fixed in formalin for immunohistochemistry.

[4] = tested on: HUVEC cells; assay: Inhibition of tube formation in HUVEC cells; type: cell-based; conditions: overnight; 0.01-5.0 μM tested
Method: Inhibition of tube formation in HUVEC cells. […] Briefly, 1×10^4 HUV endothelial cells were seeded on the surface of the polymerized EC matrix gel per well, treated with either DMSO or 0.01 μM, 0.1 μM, 0.2 μM, 0.5 μM, 1.0 μM, 2.0 μM, and 5.0 μM of the compound from Example 1 and the compound from Example 16. The cells were incubated overnight at 37° C. The next day the tubes were observed and the images were captured using a Nikon phase contrast inverted microscope.

Structure (SMILES)	vasculogenic mimicry [1]	invasion through the artificial basement membrane ([2]; 5 μM in DMSO)	effectiveness in invasion assay relative to Example 8 ([2]; 5 μM)	growth of breast tumor xenograft ([3]; 10 mM in 20% Trappsol/PBS, 50 μL intratumoral)	increase in average tumor volume ([3]; 10 mM in 20% Trappsol/PBS, 50 μL intratumoral, vehicles 2.3 and 2.5-fold) [fold]	tumor center histology (cellularity, necrosis) ([3]; centers / interior of tumors)	tumor vascularity (CD31 staining, microvessels) ([3]; centers / interior of tumors)	Ki-67 staining of proliferating cells ([3]; treated tumors)	phosphorylation of STAT3 in treated tumors vs vehicle controls ([3]; tumors harvested 2 h after last treatment)	concentration at which significant reduction in tube formation was observed [4] [µM]
C/C(=C\C(=O)N[C@H]1CCc2cccc3c2N(C1=O)[C@H](C(=O)N[C@H](C)CCC(N)=O)C3)c1ccc(C(F)(F)P(=O)(OCOC(=O)C(C)(C)C)OCOC(=O)C(C)(C)C)cc1 [Example 1, (2E)-3-[4-[[bis[(2,2-dimethyl-1-oxopropoxy)methoxy]phosphinyl]difluoromethyl]phenyl]-but-2-enoyl-Haic-(R)-4-aminopentamide]	Significant reduction	inhibited invasion	more effective	inhibited; also recorded: inhibits the growth	1.6	necrosis; also recorded: notably acellular	avascular	decrease in Ki-67 staining	reduced; also recorded: strongly inhibited	
CCCC[C@H](NC(=O)/C=C(\C)c1ccc(C(F)(F)P(=O)(OCOC(=O)C(C)(C)C)OCOC(=O)C(C)(C)C)cc1)C(=O)N1C[C@H]2CC2[C@H]1C(=O)N[C@@H](CCC(N)=O)[C@@H](C)OCc1ccccc1 (stereo partly drawn) [Example 16, (2E)-3-[4-[[bis[(2,2-dimethyl-1-oxopropoxy)methoxy]phosphinyl]difluoromethyl]phenyl]-but-2-enoyl-norleucinyl-(2S,3R,4S)-methanoprolinyl-(4S,5R)-4-amino-5-benzyloxyhexamide]										2
